Data from US6632809B2, “Gyrase inhibitors and uses thereof” (Vertex Pharmaceuticals Incorporated, priority 2000, dated 2003).
Converted amounts (≈) assume the structure as drawn.

Key:
[1] = target: DNA gyrase (374 kDa Gyr A2B2 subunit from Staphylococcus aureus) (Staphylococcus aureus, UniProt P0A0K8); assay: Gyrase ATPase Assay; type: biochemical; details: 10 μM concentration, ATPase assay at 30° C., 0.9 mM ATP, average of duplicate values; for inhibition at 10 µM: read-out: Gyrase Inhibitory Activity (percent inhibition)
Method: The ATP hydrolysis activity of DNA gyrase was measure by coupling the production of ADP through pyruvate kinase/lactate dehydrogenase to the oxidation of NADH. This method has been described previously (Tamura and Gellert, 1990, J. Biol. Chem., 265, 21342).
ATPase assays are carried out at 30° C. in buffered solutions containing 100 mM TRIS pH 7.6, 1.5 mM MgCl2, 50 mM KCl. The coupling system contains (final concentrations) 2.5 mM phosphoenol pyruvate, 200 μM nicotinamide adenine dinucleotide (NADH), 1 mM DTT, […], and 10 ug/ml lactate dehydrogenase. 40 nanomolar enzyme (374 kDa Gyr A2B2 subunit from Staphylococcus aureus) and a DMSO solution of the inhibitor to a final concentration of 4% are added and the reaction mixture is allowed to incubate for 10 minutes at 30° C. The reaction is then started by the addition of ATP to a final concentration of 0.9 mM and the rate of NADH disappearance at 340 nanometers is measured over the course of 10 minutes. The percent inhibition values are determined from rate versus concentration profiles and are reported as the average of duplicate values.
The compound numbers correspond to the compound numbers in Table 1. Compounds having an activity designated as “A” provided a percent inhibition value below 50 percent; compounds having an activity designated as “B” provided a percent inhibition value between 50 and 75 percent; and compounds having an activity designated as “C” provided a percent inhibition value greater than 75 percent.

[2] = test system: test bacteria; assay: Susceptibility Testing in Liquid Media (MIC assay); type: cell-based; details: broth dilution, MHB, 35° C. overnight (16 to 20 hr), organism not given; for MIC: read-out: MIC (minimal inhibitory concentration) activity level
Method: Susceptibility Testing in Liquid Media
Compounds of this invention were also tested for antimicrobial activity by susceptibility testing in liquid media. Such assays were performed within the guidelines of the latest NCCLS document governing such practices: “M7-A5 Methods for dilution Antimicrobial Susceptibility Tests for Bacteria that Grow Aerobically; Approved Standard—Fifth Edition (2000)”. Other publications such as “Antibiotics in Laboratory Medicine” (Edited by V. Lorian, Publishers Williams and Wilkins, 1996) provide essential practical techniques in laboratory antibiotic testing. Essentially, several discrete bacterial colonies (3 to 7) from a freshly streaked plate were transferred to an appropriate rich broth medium such as MHB, supplemented where appropriate for the more fastidious organisms. This was grown overnight to high density followed by a 1 or 2-thousand-fold dilution to give an inoculation density of between 5×10^5 and 5×10^6 CFU per mL. Alternatively, the freshly picked colonies can be incubated at 37° C. for about 4 to 8 hrs until the culture equals or exceeds a turbidity of a 0.5 McFarland standard (approximately 1.5×10^8 cells per mL) and diluted to give the same CFU per mL as above. In a more convenient method, the inoculum was prepared using a commercially available mechanical device (the BBL PROMPT System) that involves touching five colonies directly with a wand, containing crosshatch grooves at its bottom, followed by suspension of the bacteria in an appropriate volume of saline. Dilution to the appropriate inoculum cell density was made from this cell suspension. The broth used for testing consists of MHB supplemented with 50 mg per L of Ca^2+ and 25 mg per L of Mg^2+. Standard dilution panels of control antibiotics were made and stored as in the NCCLS standard M7-A5, the dilution range typically being in the 128 μg per mL to 0.015 μg per mL (by 2-fold serial dilution). The test compounds were dissolved and diluted fresh for experimentation on the same day; the same or similar ranges of concentration as above being used. The test compounds and controls were dispensed into a multiwell plate and test bacteria added such that the final inoculation was approximately 5×10^4 CFU per well and the final volume was 100 μL. The plates were incubated at 35° C. overnight (16 to 20 hr) and checked by eye for turbidity or quantitated with a multiwell plate reader. […] Such determinations were also compared to the appropriate tables contained in the above two publications to ensure that the range of antibacterial activity is within the acceptable range for this standardized assay.
The compound numbers correspond to the compound numbers in Table 1.

DNA gyrase (374 kDa Gyr A2B2 subunit from Staphylococcus aureus), sequence (P0A0K8 whole entry): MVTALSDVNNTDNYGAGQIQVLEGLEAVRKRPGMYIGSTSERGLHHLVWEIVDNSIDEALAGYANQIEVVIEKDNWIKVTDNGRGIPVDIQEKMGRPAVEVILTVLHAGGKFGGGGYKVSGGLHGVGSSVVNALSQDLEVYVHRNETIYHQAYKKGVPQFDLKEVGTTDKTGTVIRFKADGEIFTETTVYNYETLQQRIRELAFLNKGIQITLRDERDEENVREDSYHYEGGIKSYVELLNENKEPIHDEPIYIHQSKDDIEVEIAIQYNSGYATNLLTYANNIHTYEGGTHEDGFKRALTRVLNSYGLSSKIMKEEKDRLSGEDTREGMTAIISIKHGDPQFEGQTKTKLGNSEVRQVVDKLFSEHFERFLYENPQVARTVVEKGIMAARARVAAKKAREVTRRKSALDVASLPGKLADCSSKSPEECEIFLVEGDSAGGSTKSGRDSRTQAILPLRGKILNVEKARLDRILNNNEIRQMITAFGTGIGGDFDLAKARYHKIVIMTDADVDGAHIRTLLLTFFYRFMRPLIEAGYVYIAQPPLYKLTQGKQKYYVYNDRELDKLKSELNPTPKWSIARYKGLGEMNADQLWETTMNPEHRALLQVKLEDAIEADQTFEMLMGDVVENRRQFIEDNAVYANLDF
DNA gyrase (374 kDa Gyr A2B2 subunit from Staphylococcus aureus), sequence (P20831 whole entry, further chain): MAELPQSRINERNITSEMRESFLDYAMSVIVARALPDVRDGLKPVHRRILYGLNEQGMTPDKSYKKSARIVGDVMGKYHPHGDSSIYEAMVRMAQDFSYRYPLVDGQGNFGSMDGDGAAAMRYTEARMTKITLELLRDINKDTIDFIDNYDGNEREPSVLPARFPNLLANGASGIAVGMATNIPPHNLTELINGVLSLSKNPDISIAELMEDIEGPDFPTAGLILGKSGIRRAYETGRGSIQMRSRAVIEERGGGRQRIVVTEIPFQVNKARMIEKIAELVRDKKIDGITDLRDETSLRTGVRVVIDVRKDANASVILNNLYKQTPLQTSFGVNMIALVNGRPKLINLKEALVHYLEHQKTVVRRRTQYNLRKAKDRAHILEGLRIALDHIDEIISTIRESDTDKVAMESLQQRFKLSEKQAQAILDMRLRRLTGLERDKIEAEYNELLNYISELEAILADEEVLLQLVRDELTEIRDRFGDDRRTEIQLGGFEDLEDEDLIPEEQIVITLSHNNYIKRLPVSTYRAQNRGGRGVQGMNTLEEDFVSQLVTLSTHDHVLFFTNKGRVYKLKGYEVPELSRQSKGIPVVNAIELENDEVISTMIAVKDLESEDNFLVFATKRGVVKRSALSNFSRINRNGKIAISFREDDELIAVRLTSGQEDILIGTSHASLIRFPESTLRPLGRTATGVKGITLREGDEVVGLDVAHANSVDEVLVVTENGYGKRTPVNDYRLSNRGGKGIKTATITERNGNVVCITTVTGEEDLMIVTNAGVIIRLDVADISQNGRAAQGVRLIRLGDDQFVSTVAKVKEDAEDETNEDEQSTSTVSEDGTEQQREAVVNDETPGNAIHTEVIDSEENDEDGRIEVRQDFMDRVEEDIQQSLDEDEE

Structure (SMILES) | inhibition at 10 µM [1] [%] | MIC [2] [mg/L] | Gyrase Inhibitory Activity (percent inhibition) [1] | MIC (minimal inhibitory concentration) activity level [2]
CCNC(=O)Nc1nc2cc(-n3ccc(=O)c(OCc4ccccc4)c3C)ccc2[nH]1 [Ia-160] | > 75 | > 40 |  | 
CCNC(=O)Nc1nc2cc(-c3cnc(NC(C)COC)nc3)c(OC)cc2[nH]1 (stereo not drawn) [Ia-146] | > 75 | < 10 |  | 
CCNC(=O)Nc1nc2cc(-c3ccc(CNC(C)=O)nc3)ccc2[nH]1 [Ia-145] | > 75 | 10 to 40 (≈ 28.4 to 114 µM) |  | 
CCNC(=O)Nc1nc2cc(-c3cccnc3)c(N3CCCC3)cc2[nH]1 [Ia-180] | > 75 | 10 to 40 (≈ 28.5 to 114 µM) |  | 
CCNC(=O)Nc1nc2nc(N3CCC(N)C3)ccc2[nH]1 (stereo not drawn) [Ia-198] |  | 10 to 40 (≈ 34.6 to 138 µM) |  | 
CCNC(=O)Nc1nc2cc(-c3cccnc3)c(OCCOC)c(C)c2[nH]1 [Ia-149] | > 75 | > 40 |  | 
CCNC(=O)Nc1nc2cc(-c3cccnc3)c(N3CCCCC3)cc2[nH]1 [Ia-178] | > 75 | < 10 |  | 
CCNC(=O)Nc1nc2cc(-n3cc(C(=O)O)c4ncccc43)ccc2[nH]1 [Ia-196] |  | 10 to 40 (≈ 27.4 to 110 µM) |  | 
CCNC(=S)Nc1nc2cc(-c3ccccc3)ccc2[nH]1 [Ia-90] |  | < 10 | C (provided a percent inhibition value greater than 75 percent) | 
CCNC(=O)Nc1nc2cc(-c3ccc(N4CCCC4)nc3)ccc2[nH]1 [Ia-177] | > 75 | > 40 |  | 
C=CCNC(=O)c1cn(-c2ccc3[nH]c(NC(=O)NCC)nc3c2)cn1 [Ia-188] | > 75 | < 10 |  | 
CCNC(=O)Nc1nc2nc(-n3cnc(C(=O)O)c3)ccc2[nH]1 [Ia-185] | > 75 | > 40 |  | 
CCNC(=O)Nc1nc2cc(-c3cccnc3)cc(O)c2[nH]1 [Ia-167] | > 75 |  |  | C (provided an MIC of greater than 40 μg/mL)
CCNC(=O)Nc1nc2cc(-c3ccc(CN)cc3)ccc2[nH]1 [Ia-137] | > 75 | > 40 |  | 
CCNC(=O)Nc1nc2cc(-c3ccc(OCCOCC)nc3)ccc2[nH]1 [Ia-197] |  | 10 to 40 (≈ 27.1 to 108 µM) |  | 
CCNC(=O)Nc1nc2cc(-c3cnc(OC(C)COC)nc3)c(OC)cc2[nH]1 (stereo not drawn) [Ia-140] | > 75 | < 10 |  | 
CCNC(=O)Nc1nc2cc(-c3cnc(NC(C)COC)nc3)cc(C)c2[nH]1 (stereo not drawn) [Ia-141] | > 75 | < 10 |  | 
CCNC(=O)Nc1nc2cc(-n3cc(C(=O)NCc4cccnc4)cn3)ccc2[nH]1 [Ia-174] | > 75 | > 40 |  | 
CCNC(=O)Nc1nc2cc(-c3nnco3)ccc2[nH]1 [Ia-151] | > 75 | > 40 |  | 
CCNC(=O)Nc1nc2cc(-n3cnc(C(=O)O)c3)ccc2[nH]1 [Ia-157, 1-[2-(3-Ethyl-ureido)-3H-benzoimidazol-5-yl]-1H-imidazole-4-carboxylic acid] | > 75 | > 40 |  | 
CCCNC(=O)Nc1nc2cc(-c3cccnc3)ccc2[nH]1 [Ia-119] | > 75 | > 40 |  | 
CC(C)CNC(=O)Nc1nc2cc(-c3ccc(F)nc3)ccc2[nH]1 [Ia-159] | < 50 | > 40 |  | 
CCNC(=O)Nc1nc2cc(-c3cccnc3)c(C)c(C)c2[nH]1 [Ia-142] | > 75 | < 10 |  | 
CCNC(=O)Nc1nc2cc(-c3ccc(CNS(C)(=O)=O)nc3)ccc2[nH]1 [Ia-154] | > 75 | > 40 |  | 
CCNC(=O)Nc1nc2cc(-c3cccnc3)c(OC)c(F)c2[nH]1 [Ia-183] | 50 to 75 | > 40 |  | 
CCNC(=O)Nc1nc2cc(-n3cc(C(=O)NCC(C)C)cn3)ccc2[nH]1 [Ia-173] | > 75 | 10 to 40 (≈ 27.1 to 108 µM) |  | 
CCNC(=O)Nc1nc2cc(-c3cccnc3)cc(O)c2[nH]1 [Ia-169] |  |  |  | B (provided an MIC of between 10 and 40 μg/mL)
CCNC(=O)Nc1nc2cc(-n3cnc(C(=O)N4CCOCC4)c3)ccc2[nH]1 [Ia-170] | > 75 | > 40 |  | 

Structure (SMILES) | inhibition at 10 µM [1] [%] | MIC [2] [mg/L] | Gyrase Inhibitory Activity (percent inhibition) [1] | MIC (minimal inhibitory concentration) activity level [2]
CCNC(=O)Nc1nc2cc(-c3cccc(F)c3F)ccc2[nH]1 [Ia-152] | > 75 | 10 to 40 (≈ 31.6 to 126 µM) |  | 
CSc1ncc(-c2ccc3[nH]c(NC(=O)NC4CCCC4)nc3c2)cn1 [Ia-117] | < 50 | > 40 |  | 
CCNC(=O)Nc1nc2cc(-c3ccc(N4CCC(O)C4)nc3)ccc2[nH]1 (stereo not drawn) [Ia-179] | > 75 | > 40 |  | 
CCNC(=O)Nc1nc2cc(-c3cnc(NCc4cccnc4)nc3)ccc2[nH]1 [Ia-98] | > 75 | 10 to 40 (≈ 25.7 to 103 µM) |  | 
CCNC(=O)Nc1nc2cc(-c3cnc(OC)nc3)c(OC)cc2[nH]1 [Ia-112] | > 75 | < 10 |  | 
CCNC(=O)Nc1nc2cc(-c3cnc(NCc4ccc5c(c4)OCO5)nc3)ccc2[nH]1 [Ia-128] | > 75 |  |  | 
CCNC(=O)Nc1nc2cc(-c3cnc(NCC(=O)O)nc3)ccc2[nH]1 [Ia-35] | > 75 |  |  | 
CCNC(=O)Nc1nc2cc(-c3cnc(N4CCCC4COC)nc3)ccc2[nH]1 (stereo not drawn) [Ia-130] | > 75 |  |  | 
CCN/C(=N\C)Nc1nc2cc(-c3ccccc3)ccc2[nH]1 [Ia-97] | < 50 |  |  | 
CCNC(=O)Nc1nc2cc(N3CCOCC3)ccc2[nH]1 [Ia-176] | < 50 |  |  | 
C#CCOC(=O)Nc1nc2cc(-c3ccccc3)ccc2[nH]1 [Ia-8] | < 50 |  |  | 
CCOC(=O)Nc1nc2cc(-c3ccc(OC)nc3)ccc2[nH]1 [Ia-18] | > 75 |  |  | 
CCNC(=O)Nc1nc2cc(-c3cnc(NCc4ccccn4)nc3)ccc2[nH]1 [Ia-48] | > 75 |  |  | 
CCOC(=O)Nc1nc2cc(-c3cccc(C(=O)O)c3)ccc2[nH]1 [Ia-24] | > 75 |  |  | 
CCOC(=O)Nc1nc2cc(-c3cnc(N4CCN(S(C)(=O)=O)CC4)nc3)ccc2[nH]1 [Ia-91] | < 50 |  |  | 
CCOC(=O)Nc1nc2cc(-c3ccc(=O)[nH]c3)ccc2[nH]1 [Ia-71] | < 50 |  |  | 
CCOC(=O)Nc1nc2cc(-c3cnc(NC(COC(C)(C)C)C(=O)OC(C)(C)C)nc3)ccc2[nH]1 (stereo not drawn) [Ia-93] | > 75 |  |  | 
CCOC(=O)Nc1cncc(-c2ccc3[nH]c(NC(=O)OCC)nc3c2)c1 [Ia-87] | > 75 |  |  | 
CCNC(=O)Nc1nc2cc(-c3cnc(NC(CO)C(=O)O)nc3)ccc2[nH]1 (stereo not drawn) [Ia-45] | > 75 |  |  | 
CCNC(=O)Nc1nc2cc(-c3ccccc3)cc(C)c2[nH]1 [Ia-43] | > 75 |  |  | 
CCNC(=O)Nc1nc2cc(-c3cnc(N4CCN(C(C)=O)CC4)nc3)ccc2[nH]1 [Ia-113] | > 75 |  |  | 
CCNC(=O)Nc1nc2cc(-c3ccc(CNC(=O)OC(C)(C)C)cc3)ccc2[nH]1 [Ia-135] | > 75 |  |  | 
CCOC(=O)Nc1nc2cc(-c3cnc(N4CCN(C(=O)OC(C)(C)C)CC4)nc3)ccc2[nH]1 [Ia-69] | 50 to 75 |  |  | 
CCNC(=O)Nc1nc2cc(-c3cnc(NCc4cccc(F)c4)nc3)ccc2[nH]1 [Ia-56] | > 75 |  |  | 
CCNC(=S)Nc1nc2cc(-c3ccccc3)ccc2[nH]1 [Ia-36] |  |  | A (provided a percent inhibition value below 50 percent) | 
CCNC(=O)Nc1nc2cc(C(=O)NOC(C)(C)C)ccc2[nH]1 [Ia-46] | < 50 |  |  | 
CCNC(=O)Nc1nc2cc(-c3cccnc3)cc(F)c2[nH]1 [Ia-103] | > 75 |  |  | 
